From ChEMBL document CHEMBL3885881, “DrugMatrix”

Species on record: Rattus norvegicus
Assay: DrugMatrix - Regimen: Daily Repeat
Type: toxicity, organism-based, Sprague-Dawley
Design: regimen Daily Repeat, gender Male, age 6-8 weeks
Conditions: in vivo, po, route oral GAVAGE, vehicle 100 % WATER; for ABSOLUTE BASOPHIL / ABSOLUTE EOSINOPHIL / ABSOLUTE LYMPHOCYTE / ABSOLUTE MONOCYTE / ABSOLUTE SEGMENTED NEUTROPHIL / BASOPHIL / EOSINOPHIL / ERYTHROCYTE COUNT / HEMATOCRIT / HEMOGLOBIN / LEUKOCYTE COUNT / LYMPHOCYTE / MEAN CORPUSCULAR HEMOGLOBIN / MEAN CORPUSCULAR HEMOGLOBIN CONCENTRATION / MEAN CORPUSCULAR VOLUME / MONOCYTE / NEUTROPHIL / NUCLEATED RED BLOOD CELLS / PLATELET COUNT: tissue Blood; for ALANINE AMINOTRANSFERASE / ALBUMIN / ALKALINE PHOSPHATASE / ASPARTATE AMINOTRANSFERASE / BLOOD UREA NITROGEN / CARBON DIOXIDE / CHLORIDE / CHOLESTEROL / CREATINE PHOSPHOKINASE / CREATININE / GLUCOSE / LACTATE DEHYDROGENASE / LIPASE / PHOSPHORUS / POTASSIUM / SODIUM / TOTAL BILIRUBIN / TOTAL PROTEIN / URIC ACID: tissue Plasma
[1] = 0 mg/kg, 72 h, dose level Control, time 3 day
[2] = 0 mg/kg, 120 h, dose level Control, time 5 day
[3] = 2200 mg/kg, 72 h, dose level High, time 3 day
[4] = 2200 mg/kg, 120 h, dose level High, time 5 day

`O.O.O.O.O.O.[Cl-].[Cl-].[Sr+2]` [STRONTIUM CHLORIDE HEXAHYDRATE] was tested, and the “ABSOLUTE BASOPHIL” value [1] was 0 CELLS/uL, the “ABSOLUTE EOSINOPHIL” value [1] was 151.33 CELLS/uL and the “ABSOLUTE LYMPHOCYTE” value [1] was 10599.5 CELLS/uL. For the same compound, the “ABSOLUTE MONOCYTE” value [1] was 109.5 CELLS/uL, the “ABSOLUTE SEGMENTED NEUTROPHIL” value [1] was 1139.67 CELLS/uL and the BASOPHIL [1] was 0%. For the same compound, the EOSINOPHIL [1] was 0.83%, the “ERYTHROCYTE COUNT” value [1] was 5.54 x10E6/uL and the HEMATOCRIT [1] was 35.35%. For the same compound, the HEMOGLOBIN [1] was 13.22 G/DL, the “LEUKOCYTE COUNT” value [1] was 12 x10E3/uL and the LYMPHOCYTE [1] was 89%. For the same compound, the “MEAN CORPUSCULAR HEMOGLOBIN” value [1] was 23.88 pg, the “MEAN CORPUSCULAR HEMOGLOBIN CONCENTRATION” value [1] was 37.4 G/DL and the “MEAN CORPUSCULAR VOLUME” value [1] was 63.85 fL. The MONOCYTE [1] was 1%, the NEUTROPHIL [1] was 9.17% and the “NUCLEATED RED BLOOD CELLS” value [1] was 0 /100WBC. For the same compound, the “PLATELET COUNT” value [1] was 1333.33 x10E3/uL, the “ALANINE AMINOTRANSFERASE” value [1] was 53.17 u/L and the ALBUMIN [1] was 4.32 G/DL. The “ALKALINE PHOSPHATASE” value [1] was 404.33 u/L, the “ASPARTATE AMINOTRANSFERASE” value [1] was 83.17 u/L and the “BLOOD UREA NITROGEN” value [1] was 15.67 mg/dL. For the same compound, the “CARBON DIOXIDE” value [1] was 27.33 mmol/L, the CHLORIDE [1] was 101.83 MEQ/L and the CHOLESTEROL [1] was 68.67 mg/dL. The “CREATINE PHOSPHOKINASE” value [1] was 276.17 u/L, the CREATININE [1] was 0.18 mg/dL and the GLUCOSE [1] was 163.5 mg/dL. For the same compound, the “LACTATE DEHYDROGENASE” value [1] was 144.67 u/L, the LIPASE [1] was 8.83 u/L and the PHOSPHORUS [1] was 11.72 mg/dL. For the same compound, the POTASSIUM [1] was 5.99 MEQ/L, the SODIUM [1] was 143.57 MEQ/L and the “TOTAL BILIRUBIN” value [1] was 0.2 mg/dL. For the same compound, the “TOTAL PROTEIN” value [1] was 6.1 G/DL, the “URIC ACID” value [1] was 1.38 mg/dL and the “ABSOLUTE BASOPHIL” value [2] was 0 CELLS/uL. For the same compound, the “ABSOLUTE EOSINOPHIL” value [2] was 248.67 CELLS/uL, the “ABSOLUTE LYMPHOCYTE” value [2] was 12977.83 CELLS/uL and the “ABSOLUTE MONOCYTE” value [2] was 19.67 CELLS/uL. The “ABSOLUTE SEGMENTED NEUTROPHIL” value [2] was 1137.17 CELLS/uL, the BASOPHIL [2] was 0% and the EOSINOPHIL [2] was 1.67%. For the same compound, the “ERYTHROCYTE COUNT” value [2] was 5.82 x10E6/uL, the HEMATOCRIT [2] was 36.35% and the HEMOGLOBIN [2] was 13.58 G/DL. For the same compound, the “LEUKOCYTE COUNT” value [2] was 14.38 x10E3/uL, the LYMPHOCYTE [2] was 90.5% and the “MEAN CORPUSCULAR HEMOGLOBIN” value [2] was 23.32 pg. For the same compound, the “MEAN CORPUSCULAR HEMOGLOBIN CONCENTRATION” value [2] was 37.42 G/DL, the “MEAN CORPUSCULAR VOLUME” value [2] was 62.42 fL and the MONOCYTE [2] was 0.17%. The NEUTROPHIL [2] was 7.67%, the “NUCLEATED RED BLOOD CELLS” value [2] was 0 /100WBC and the “PLATELET COUNT” value [2] was 1337.67 x10E3/uL. For the same compound, the “ALANINE AMINOTRANSFERASE” value [2] was 48.5 u/L, the ALBUMIN [2] was 4.32 G/DL and the “ALKALINE PHOSPHATASE” value [2] was 354.33 u/L. The “ASPARTATE AMINOTRANSFERASE” value [2] was 80 u/L, the “BLOOD UREA NITROGEN” value [2] was 16 mg/dL and the “CARBON DIOXIDE” value [2] was 27.33 mmol/L. For the same compound, the CHLORIDE [2] was 100.33 MEQ/L, the CHOLESTEROL [2] was 68 mg/dL and the “CREATINE PHOSPHOKINASE” value [2] was 325.17 u/L. The CREATININE [2] was 0.23 mg/dL, the GLUCOSE [2] was 172 mg/dL and the “LACTATE DEHYDROGENASE” value [2] was 254.83 u/L. For the same compound, the LIPASE [2] was 8.33 u/L, the PHOSPHORUS [2] was 12.17 mg/dL and the POTASSIUM [2] was 6.28 MEQ/L. For the same compound, the SODIUM [2] was 143.57 MEQ/L, the “TOTAL BILIRUBIN” value [2] was 0.18 mg/dL and the “TOTAL PROTEIN” value [2] was 6.12 G/DL. The “URIC ACID” value [2] was 1.78 mg/dL, the “ABSOLUTE BASOPHIL” value [3] was 0 CELLS/uL and the “ABSOLUTE EOSINOPHIL” value [3] was 196.33 CELLS/uL. For the same compound, the “ABSOLUTE LYMPHOCYTE” value [3] was 12931 CELLS/uL, the “ABSOLUTE MONOCYTE” value [3] was 96.33 CELLS/uL and the “ABSOLUTE SEGMENTED NEUTROPHIL” value [3] was 1409.67 CELLS/uL. For the same compound, the BASOPHIL [3] was 0%, the EOSINOPHIL [3] was 1.33% and the “ERYTHROCYTE COUNT” value [3] was 5.23 x10E6/uL. For the same compound, the HEMATOCRIT [3] was 33.33%, the HEMOGLOBIN [3] was 12.6 G/DL and the “LEUKOCYTE COUNT” value [3] was 14.63 x10E3/uL. The LYMPHOCYTE [3] was 88.33%, the “MEAN CORPUSCULAR HEMOGLOBIN” value [3] was 24.13 pg and the “MEAN CORPUSCULAR HEMOGLOBIN CONCENTRATION” value [3] was 37.8 G/DL. The “MEAN CORPUSCULAR VOLUME” value [3] was 63.8 fL, the MONOCYTE [3] was 0.67% and the NEUTROPHIL [3] was 9.67%. For the same compound, the “NUCLEATED RED BLOOD CELLS” value [3] was 0 /100WBC, the “PLATELET COUNT” value [3] was 1378.33 x10E3/uL and the “ALANINE AMINOTRANSFERASE” value [3] was 57.67 u/L. For the same compound, the ALBUMIN [3] was 4.13 G/DL, the “ALKALINE PHOSPHATASE” value [3] was 643.67 u/L and the “ASPARTATE AMINOTRANSFERASE” value [3] was 69.33 u/L. For the same compound, the “BLOOD UREA NITROGEN” value [3] was 15.33 mg/dL, the “CARBON DIOXIDE” value [3] was 26.33 mmol/L and the CHLORIDE [3] was 104.67 MEQ/L. The CHOLESTEROL [3] was 80 mg/dL, the “CREATINE PHOSPHOKINASE” value [3] was 192.67 u/L and the CREATININE [3] was 0.19 mg/dL. For the same compound, the GLUCOSE [3] was 177 mg/dL, the “LACTATE DEHYDROGENASE” value [3] was 86.33 u/L and the LIPASE [3] was 8.33 u/L. It also gave a PHOSPHORUS [3] of 12.27 mg/dL, a POTASSIUM [3] of 6.12 MEQ/L and an SODIUM [3] of 145.67 MEQ/L. For the same compound, the “TOTAL BILIRUBIN” value [3] was 0.27 mg/dL, the “TOTAL PROTEIN” value [3] was 5.8 G/DL and the “URIC ACID” value [3] was 1.97 mg/dL. For the same compound, the “ABSOLUTE BASOPHIL” value [4] was 0 CELLS/uL, the “ABSOLUTE EOSINOPHIL” value [4] was 176 CELLS/uL and the “ABSOLUTE LYMPHOCYTE” value [4] was 13256.67 CELLS/uL. For the same compound, the “ABSOLUTE MONOCYTE” value [4] was 0 CELLS/uL, the “ABSOLUTE SEGMENTED NEUTROPHIL” value [4] was 1734 CELLS/uL and the BASOPHIL [4] was 0%. The EOSINOPHIL [4] was 1%, the “ERYTHROCYTE COUNT” value [4] was 5.42 x10E6/uL and the HEMATOCRIT [4] was 34.13%. The HEMOGLOBIN [4] was 13.03 G/DL, the “LEUKOCYTE COUNT” value [4] was 15.17 x10E3/uL and the LYMPHOCYTE [4] was 87.33%. For the same compound, the “MEAN CORPUSCULAR HEMOGLOBIN” value [4] was 24.13 pg, the “MEAN CORPUSCULAR HEMOGLOBIN CONCENTRATION” value [4] was 38.23 G/DL and the “MEAN CORPUSCULAR VOLUME” value [4] was 63.13 fL. The MONOCYTE [4] was 0%, the NEUTROPHIL [4] was 11.67% and the “NUCLEATED RED BLOOD CELLS” value [4] was 0 /100WBC. For the same compound, the “PLATELET COUNT” value [4] was 1262.67 x10E3/uL, the “ALANINE AMINOTRANSFERASE” value [4] was 42.33 u/L and the ALBUMIN [4] was 3.97 G/DL. The “ALKALINE PHOSPHATASE” value [4] was 573.67 u/L, the “ASPARTATE AMINOTRANSFERASE” value [4] was 58.67 u/L and the “BLOOD UREA NITROGEN” value [4] was 16.67 mg/dL. For the same compound, the “CARBON DIOXIDE” value [4] was 29 mmol/L, the CHLORIDE [4] was 99 MEQ/L and the CHOLESTEROL [4] was 78 mg/dL. For the same compound, the “CREATINE PHOSPHOKINASE” value [4] was 220 u/L, the CREATININE [4] was 0.2 mg/dL and the GLUCOSE [4] was 155.33 mg/dL. For the same compound, the “LACTATE DEHYDROGENASE” value [4] was 172.33 u/L, the LIPASE [4] was 8.67 u/L and the PHOSPHORUS [4] was 11.03 mg/dL. The POTASSIUM [4] was 6.01 MEQ/L, the SODIUM [4] was 142.9 MEQ/L and the “TOTAL BILIRUBIN” value [4] was 0.17 mg/dL. For the same compound, the “TOTAL PROTEIN” value [4] was 5.67 G/DL and the “URIC ACID” value [4] was 1.5 mg/dL.
